Some test systems named below: UO-31 renal; NCI-H522 lung; HCT-15 colon; U251 CNS; CAKI-1 renal; EKVX NSCLC; HOP-62 NSCLC; SNB-19 CNS; SF-539 CNS; SF-295 CNS.
What all share (test): growth of human tumour cells (NCI), 48 h

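Method: 48-hour compound exposure of cells in 96-well plates, five concentrations, linear interpolation of endpoints. Here, GI50 denotes the concentration required for 50% inhibition of growth. TGI: concentration producing complete growth inhibition.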

In the case of `[N-]=[N+]=C1N=CN=C1c1ncn[nH]1`, the TGI with UO-31 renal is 86.3 µM; in the assay on NCI-H522 lung, greater than 100 µM; with HCT-15 colon it was greater than 100 µM; in the assay on U251 CNS, greater than 100 µM; in the assay on CAKI-1 renal, 37.5 µM; with EKVX NSCLC it was greater than 100 µM. The TGI was greater than 100 µM in the assay on HOP-62 NSCLC, greater than 100 µM in the assay on SNB-19 CNS, 52.2 µM with SF-539 CNS and greater than 100 µM in the assay with SF-295 CNS.
In the case of `C[Si](C)(OCCS(=O)(=O)O)C1(Cc2cccc3ccccc23)S(=O)(=O)OCCOS1(=O)=O`, the TGI with UO-31 renal stood at 32.4 µM; in the assay with NCI-H522 lung, 30.5 µM; with HCT-15 colon, 52.1 µM; with U251 CNS it was 63.7 µM; in the assay on CAKI-1 renal it was 31.4 µM; with EKVX NSCLC, 32.3 µM. Besides, the TGI was found to be 45 µM in the assay with HOP-62 NSCLC, 42.9 µM with SNB-19 CNS, 39.5 µM with SF-539 CNS and 69.9 µM in the assay with SF-295 CNS.
Turning to `CCOP(=O)(OCC)/C(C#N)=C/c1cn(C)cn1`, the TGI with UO-31 renal, in the assay with NCI-H522 lung, in the assay on HCT-15 colon, with U251 CNS, in the assay on CAKI-1 renal and with EKVX NSCLC was greater than 100 µM throughout. Further, the TGI with HOP-62 NSCLC, with SNB-19 CNS, in the assay on SF-539 CNS and in the assay with SF-295 CNS was greater than 100 µM throughout.
Turning to `N[C@H](C(=O)O)[C@H]1ON=C(Cl)[C@@H]1O`, the TGI in the assay on UO-31 renal was 441 µM; in the assay on NCI-H522 lung, 62.6 µM; in the assay with HCT-15 colon, greater than 550 µM; in the assay on U251 CNS, greater than 550 µM; with CAKI-1 renal it was 205 µM; with EKVX NSCLC it was greater than 550 µM. Besides, the TGI in the assay with HOP-62 NSCLC was 78.2 µM; in the assay with SNB-19 CNS it was greater than 550 µM; in the assay on SF-539 CNS it was greater than 362 µM; with SF-295 CNS, greater than 550 µM. For the same molecule, the GI50 is greater than 25.8 µM in the assay on NCI-H522 lung; 3.95 µM in the assay on HCT-15 colon; 11.4 µM in the assay on U251 CNS; 4.06 µM in the assay on CAKI-1 renal; 11.2 µM in the assay on EKVX NSCLC; 16 µM in the assay on HOP-62 NSCLC. For the same molecule, the GI50 is 40.7 µM with SNB-19 CNS, 8.83 µM with SF-539 CNS and 2.83 µM in the assay with SF-295 CNS.
Regarding `C[C@]12CCC(=O)C=C1CC[C@@H]1[C@@H]2[C@@H](O)C[C@@]2(C)[C@H]1CC[C@]2(O)C(=O)COC(=O)COCC(=O)O`, the TGI with UO-31 renal, in the assay with NCI-H522 lung, in the assay with HCT-15 colon, in the assay on U251 CNS, in the assay on CAKI-1 renal and in the assay on EKVX NSCLC was greater than 100 µM throughout. Moreover, the TGI in the assay on HOP-62 NSCLC, in the assay with SNB-19 CNS, in the assay with SF-539 CNS and with SF-295 CNS was greater than 100 µM throughout.
Take `O=S(=O)(CCBr)CCBr`: the TGI in the assay with UO-31 renal was greater than 100 µM; with NCI-H522 lung, 3.11 µM; in the assay on HCT-15 colon, 7.88 µM; in the assay on U251 CNS, 29.2 µM; in the assay with CAKI-1 renal, 16.4 µM; with HOP-62 NSCLC, 43.1 µM. The TGI came out at 35 µM with SNB-19 CNS, 18.6 µM in the assay with SF-539 CNS and 29.8 µM with SF-295 CNS.
Regarding `O=C(Nc1cccc(-n2ccc3c(NC(=O)c4ccccc4)nccc32)c1)Nc1cc(C(F)(F)F)cc(C(F)(F)F)c1`, the GI50 in the assay with UO-31 renal was 2.4 µM; with NCI-H522 lung, 0.83 µM; with HCT-15 colon it was 1.07 µM; in the assay with U251 CNS it was 1.63 µM; in the assay on CAKI-1 renal, 1.53 µM; with EKVX NSCLC, 2.63 µM. In addition, the GI50 in the assay on HOP-62 NSCLC is 3.75 µM; in the assay on SNB-19 CNS, 2.32 µM; in the assay with SF-539 CNS, 1.39 µM; in the assay with SF-295 CNS, 1.88 µM. The TGI in the assay with UO-31 renal was greater than 50 µM; with NCI-H522 lung it was 2.69 µM; in the assay with HCT-15 colon, 33.2 µM; in the assay with U251 CNS it was 7.68 µM; in the assay on CAKI-1 renal it was 4.32 µM; with EKVX NSCLC it was greater than 50 µM. In addition, the TGI in the assay on HOP-62 NSCLC is greater than 50 µM; in the assay on SNB-19 CNS, greater than 50 µM; in the assay with SF-539 CNS, 4.76 µM; in the assay with SF-295 CNS it was 30.5 µM.
With `COc1ccc(-n2cnnc2-c2nsc3ccccc23)cc1`, the TGI with UO-31 renal, in the assay with HCT-15 colon, in the assay on U251 CNS, in the assay with EKVX NSCLC, with HOP-62 NSCLC and with SNB-19 CNS was greater than 100 µM each time. The molecule also came in with a TGI with SF-539 CNS greater than 100 µM.
For `O=C(O)c1cc2ccccc2c(N=Nc2ccc(S(=O)(=O)Nc3nccs3)cc2)c1O`, the TGI in the assay with UO-31 renal, in the assay on NCI-H522 lung, with HCT-15 colon, with U251 CNS, with CAKI-1 renal and in the assay on EKVX NSCLC was greater than 100 µM throughout. The TGI in the assay with HOP-62 NSCLC, with SF-539 CNS and with SF-295 CNS was greater than 100 µM in each case.
In the case of `Nc1nc(SCc2ccc([N+](=O)[O-])cc2)nc2c1ncn2C1OC(COP(=O)(O)O)C(O)C1O` (stereo unspecified), the TGI in the assay on NCI-H522 lung, with HCT-15 colon, with U251 CNS, with EKVX NSCLC, in the assay with HOP-62 NSCLC and with SNB-19 CNS was greater than 100 µM in each case. In addition, the TGI with SF-539 CNS and in the assay on SF-295 CNS was greater than 100 µM throughout.
Consider `Cc1ccc(N=N/C(=N\NC(=O)c2ccc(C)cc2)c2ccc(N(CCC#N)CCC#N)cc2C)cc1`, for which the TGI with UO-31 renal, in the assay with HCT-15 colon, with U251 CNS, in the assay with CAKI-1 renal, in the assay on EKVX NSCLC and in the assay on HOP-62 NSCLC was greater than 100 µM throughout. For the same molecule, the TGI with SNB-19 CNS is greater than 100 µM; in the assay with SF-539 CNS, 45.1 µM; with SF-295 CNS, greater than 100 µM.
As to `CC(C)OP(=O)(OC(C)C)/C(I)=N/Nc1ccc([N+](=O)[O-])cc1`, the TGI in the assay with UO-31 renal, in the assay on NCI-H522 lung, in the assay on HCT-15 colon, in the assay on U251 CNS, in the assay with CAKI-1 renal and with EKVX NSCLC was greater than 100 µM throughout. Moreover, the TGI with HOP-62 NSCLC, in the assay with SNB-19 CNS, with SF-539 CNS and with SF-295 CNS was greater than 100 µM in each case.
Take `CC(NC(=O)C(C)NC(=O)C(N)CCP(C)(=O)O)C(=O)O` (stereo unspecified): the TGI in the assay on UO-31 renal, in the assay with NCI-H522 lung, in the assay on HCT-15 colon, in the assay with U251 CNS, in the assay with CAKI-1 renal and in the assay with EKVX NSCLC was greater than 100 µM in each case. Moreover, the TGI in the assay with HOP-62 NSCLC, in the assay with SNB-19 CNS, with SF-539 CNS and in the assay on SF-295 CNS was greater than 100 µM throughout.
As to `CC1=Nc2nc(Cl)cn2C(=O)C1(Cl)Cl`, the TGI in the assay with UO-31 renal, in the assay with NCI-H522 lung, with HCT-15 colon, in the assay with U251 CNS, in the assay on CAKI-1 renal and in the assay on EKVX NSCLC was greater than 10 µM each time. Moreover, the TGI in the assay on HOP-62 NSCLC, with SNB-19 CNS, with SF-539 CNS and in the assay with SF-295 CNS was greater than 10 µM in each case.
